Data taken from ChEMBL document CHEMBL6114954, “Design, synthesis and cytotoxic activity of novel lipophilic cationic derivatives of diosgenin and sarsasapogenin” (Bioorg Med Chem Lett, 2025).
Activity calls are given as the source filed them. The rule behind the calls is not given here.

How the values were obtained:
A549 [1] = assay: Cytotoxicity against human A549 cells; format: functional, cell-based
MDA-MB-231 = assay: Cytotoxicity against human MDA-MB-231 cells; format: functional, cell-based
HepG2 = assay: Cytotoxicity against human HepG2 cells; format: functional, cell-based
A549 [2] = assay: Induction of apoptosis in human A549 cells assessed as apoptosis ratio at 4 uM incubated for 24 hrs by Annexin V-FITC/PI staining based flow cytometry (reference value: 4.38 %); format: functional
A549 [3] = assay: Induction of cell cycle arrest in human A549 cells assessed as accumulation at G0/G1 phase at 1 to 4 uM incubated for 24 hrs by PI staining based flow cytometry; format: functional; settings: dose 1-4 µM
A549 [4] = assay: Induction of apoptosis in human A549 cells assessed as increase in Bax level by Western blot analysis; format: functional, cell-based; settings: dose <= 4.0 µM
A549 [5] = assay: Induction of mitochondrial membrane potential depolarization in human A549 cells at 1 uM by JC-1 staining based flow cytometry (reference value: 7.4 %); format: functional
A549 [6] = assay: Induction of apoptosis in human A549 cells assessed as decrease in pro-caspase 3 level upto 4 microM by Western blot analysis; format: functional, cell-based
A549 [7] = assay: Induction of mitochondrial membrane potential depolarization in human A549 cells at 4 uM by JC-1 staining based flow cytometry (reference value: 7.4 %); format: functional
A549 [8] = assay: Induction of apoptosis in human A549 cells assessed as apoptosis ratio at 1 uM incubated for 24 hrs by Annexin V-FITC/PI staining based flow cytometry (reference value: 4.38 %); format: functional
A549 [9] = assay: Induction of apoptosis in human A549 cells assessed as apoptosis ratio at 2 uM incubated for 24 hrs by Annexin V-FITC/PI staining based flow cytometry (reference value: 4.38 %); format: functional
A549 [10] = assay: Induction of mitochondrial membrane potential depolarization in human A549 cells at 2 uM by JC-1 staining based flow cytometry (reference value: 7.4 %); format: functional
A549 [11] = assay: Induction of apoptosis in human A549 cells assessed as decrease in Bcl-2 level by Western blot analysis; format: functional, cell-based; settings: dose <= 4.0 µM
A549 [12] = assay: Induction of intracellular ROS generation in human A549 cells incubated for 48 hrs by DCFH-DA staining based analysis; format: functional, cell-based; settings: dose 1-4 µM

Compound	IC50 (A549 [1]) [µM]	IC50 (MDA-MB-231) [µM]	IC50 (HepG2) [µM]	other results
CC[N+]1(CCCC(=O)O[C@H]2CC[C@@]3(C)[C@H](CC[C@@H]4[C@@H]3CC[C@]3(C)[C@@H]5[C@H](C[C@@H]43)O[C@]3(CCC(C)CO3)[C@H]5C)C2)CCNCC1 (some centres not stated)	26.1	> 50	> 50	
CC[N+]1(CCCC(=O)O[C@H]2CC[C@@]3(C)C(=CC[C@H]4[C@@H]5C[C@@H]6O[C@]7(CCC(C)CO7)[C@@H](C)[C@@H]6[C@@]5(C)CC[C@@H]43)C2)CCOCC1 (some centres not stated)	29.1	41.6	27.9	
CC[N+]1(CCCC(=O)O[C@H]2CC[C@@]3(C)C(=CC[C@H]4[C@@H]5C[C@@H]6O[C@]7(CCC(C)CO7)[C@@H](C)[C@@H]6[C@@]5(C)CC[C@@H]43)C2)CCc2ccccc2C1 (some centres not stated)	8.43	20.6	18.8	
CC(=O)O[C@H]1CC[C@@]2(C)C(=CC[C@H]3[C@@H]4C[C@@H]5O[C@H](CC[C@@H](C)COC(=O)CC[P+](c6ccccc6)(c6ccccc6)c6ccccc6)[C@@H](C)[C@@H]5[C@@]4(C)CC[C@@H]32)C1	5.99	38.5	26.2	
CC(=O)O[C@H]1CC[C@@]2(C)C(=CC[C@H]3[C@@H]4C[C@@H]5O[C@H](CC[C@@H](C)COC(=O)CCC[P+](c6ccccc6)(c6ccccc6)c6ccccc6)[C@@H](C)[C@@H]5[C@@]4(C)CC[C@@H]32)C1	6.06	31.5	23.7	
CC[N+]1(CCCC(=O)OC[C@H](C)CC[C@H]2O[C@H]3C[C@H]4[C@@H]5CC=C6C[C@@H](OC(C)=O)CC[C@]6(C)[C@H]5CC[C@]4(C)[C@H]3[C@@H]2C)CCCC1	20.7	> 50	> 50	
CC[N+]1(CCCC(=O)OC[C@H](C)CC[C@H]2O[C@H]3C[C@H]4[C@@H]5CC=C6C[C@@H](OC(C)=O)CC[C@]6(C)[C@H]5CC[C@]4(C)[C@H]3[C@@H]2C)CCCCC1	18	> 50	> 50	
CC[N+]1(CCCC(=O)O[C@H]2CC[C@@]3(C)[C@H](CC[C@@H]4[C@@H]3CC[C@]3(C)[C@@H]5[C@H](C[C@@H]43)O[C@]3(CCC(C)CO3)[C@H]5C)C2)CCOCC1 (some centres not stated)	18.7	34.8	22.6	
C[C@@H]1CC[C@@]2(OC1)O[C@H]1C[C@H]3[C@@H]4CC[C@@H]5C[C@@H](O)CC[C@]5(C)[C@H]4CC[C@]3(C)[C@H]1[C@@H]2C	> 50	> 50	> 50	
CC1CC[C@@]2(OC1)O[C@H]1C[C@H]3[C@@H]4CC=C5C[C@@H](OC(=O)CCCCC[P+](c6ccccc6)(c6ccccc6)c6ccccc6)CC[C@]5(C)[C@H]4CC[C@]3(C)[C@H]1[C@@H]2C (some centres not stated)	1.24	5.49	4.19	
CC1CC[C@@]2(OC1)O[C@H]1C[C@H]3[C@@H]4CC=C5C[C@@H](OC(=O)C[P+](c6ccccc6)(c6ccccc6)c6ccccc6)CC[C@]5(C)[C@H]4CC[C@]3(C)[C@H]1[C@@H]2C (some centres not stated)	15.6	33.3	22.2	
CC[N+]1(CCCC(=O)O[C@H]2CC[C@@]3(C)C(=CC[C@H]4[C@@H]5C[C@@H]6O[C@]7(CCC(C)CO7)[C@@H](C)[C@@H]6[C@@]5(C)CC[C@@H]43)C2)CCCCC1 (some centres not stated)	15.4	40.5	19.2	
CC[N+]1(CCCC(=O)OC[C@H](C)CC[C@H]2O[C@H]3C[C@H]4[C@@H]5CC=C6C[C@@H](OC(C)=O)CC[C@]6(C)[C@H]5CC[C@]4(C)[C@H]3[C@@H]2C)CCOCC1	17.4	> 50	> 50	
CC1CC[C@@]2(OC1)O[C@H]1C[C@H]3[C@@H]4CC[C@@H]5C[C@@H](OC(=O)CCC[P+](c6ccccc6)(c6ccccc6)c6ccccc6)CC[C@]5(C)[C@H]4CC[C@]3(C)[C@H]1[C@@H]2C (some centres not stated)	1	3.62	3.44	
CC1CC[C@@]2(OC1)O[C@H]1C[C@H]3[C@@H]4CC=C5C[C@@H](OC(=O)CC[P+](c6ccccc6)(c6ccccc6)c6ccccc6)CC[C@]5(C)[C@H]4CC[C@]3(C)[C@H]1[C@@H]2C (some centres not stated)	1.19	7.92	8.28	
CC[N+]1(CCCC(=O)O[C@H]2CC[C@@]3(C)[C@H](CC[C@@H]4[C@@H]3CC[C@]3(C)[C@@H]5[C@H](C[C@@H]43)O[C@]3(CCC(C)CO3)[C@H]5C)C2)CCCCC1 (some centres not stated)	14.6	37.8	19.9	
CC[N+]1(CCCC(=O)O[C@H]2CC[C@@]3(C)[C@H](CC[C@@H]4[C@@H]3CC[C@]3(C)[C@@H]5[C@H](C[C@@H]43)O[C@]3(CCC(C)CO3)[C@H]5C)C2)CCCC1 (some centres not stated)	15.4	16.2	9.08	
CC1CC[C@@]2(OC1)O[C@H]1C[C@H]3[C@@H]4CC=C5C[C@@H](OC(=O)CCC[P+](c6ccccc6)(c6ccccc6)c6ccccc6)CC[C@]5(C)[C@H]4CC[C@]3(C)[C@H]1[C@@H]2C.[Br-] (some centres not stated)	0.95	4.16	3.95	Activity (A549 [2]): 48.2%; Activity (A549 [3]): Active; Activity (A549 [4]): Dose-dependent-effect; Activity (A549 [5]): 17.4%; Activity (A549 [6]): Active; Activity (A549 [7]): 91.2%; Activity (A549 [8]): 8.51%; Activity (A549 [9]): 23.95%; Activity (A549 [10]): 40.6%; Activity (A549 [11]): Dose-dependent-effect; Activity (A549 [12]): Dose-dependent-effect
CC(=O)O[C@H]1CC[C@@]2(C)C(=CC[C@H]3[C@@H]4C[C@@H]5O[C@H](CC[C@@H](C)COC(=O)CCCCC[P+](c6ccccc6)(c6ccccc6)c6ccccc6)[C@@H](C)[C@@H]5[C@@]4(C)CC[C@@H]32)C1	5.63	36.6	30.1	
CC(=O)O[C@H]1CC[C@@]2(C)C(=CC[C@H]3[C@@H]4C[C@@H]5O[C@H](CC[C@@H](C)COC(=O)C[P+](c6ccccc6)(c6ccccc6)c6ccccc6)[C@@H](C)[C@@H]5[C@@]4(C)CC[C@@H]32)C1	10.8	32	25.4	
CC1CC[C@@]2(OC1)O[C@H]1C[C@H]3[C@@H]4CC[C@@H]5C[C@@H](OC(=O)CCCCC[P+](c6ccccc6)(c6ccccc6)c6ccccc6)CC[C@]5(C)[C@H]4CC[C@]3(C)[C@H]1[C@@H]2C (some centres not stated)	1.3	5.01	4.18	
C[C@@H]1CC[C@@]2(OC1)O[C@H]1C[C@H]3[C@@H]4CC=C5C[C@@H](O)CC[C@]5(C)[C@H]4CC[C@]3(C)[C@H]1[C@@H]2C [DISOGENIN]		> 50	> 50	
CC[N+]1(CCCC(=O)OC[C@H](C)CC[C@H]2O[C@H]3C[C@H]4[C@@H]5CC=C6C[C@@H](OC(C)=O)CC[C@]6(C)[C@H]5CC[C@]4(C)[C@H]3[C@@H]2C)CCc2ccccc2C1 (some centres not stated)	14.4	34.8	33.5	
CC1CC[C@@]2(OC1)O[C@H]1C[C@H]3[C@@H]4CC[C@@H]5C[C@@H](OC(=O)C[P+](c6ccccc6)(c6ccccc6)c6ccccc6)CC[C@]5(C)[C@H]4CC[C@]3(C)[C@H]1[C@@H]2C (some centres not stated)	5.23	42.9	22.6	
CC[N+]1(CCCC(=O)O[C@H]2CC[C@@]3(C)C(=CC[C@H]4[C@@H]5C[C@@H]6O[C@]7(CCC(C)CO7)[C@@H](C)[C@@H]6[C@@]5(C)CC[C@@H]43)C2)CCCC1 (some centres not stated)	16.2	26.4	16.8	
CC[N+]1(CCCC(=O)O[C@H]2CC[C@@]3(C)C(=CC[C@H]4[C@@H]5C[C@@H]6O[C@]7(CCC(C)CO7)[C@@H](C)[C@@H]6[C@@]5(C)CC[C@@H]43)C2)CCNCC1 (some centres not stated)	18.6	49.2	33.7	
CC[N+]1(CCCC(=O)O[C@H]2CC[C@@]3(C)[C@H](CC[C@@H]4[C@@H]3CC[C@]3(C)[C@@H]5[C@H](C[C@@H]43)O[C@]3(CCC(C)CO3)[C@H]5C)C2)CCc2ccccc2C1 (some centres not stated)	10.8	13.8	9.52	
CC1CC[C@@]2(OC1)O[C@H]1C[C@H]3[C@@H]4CC[C@@H]5C[C@@H](OC(=O)CC[P+](c6ccccc6)(c6ccccc6)c6ccccc6)CC[C@]5(C)[C@H]4CC[C@]3(C)[C@H]1[C@@H]2C (some centres not stated)	1.09	4.26	3.34	
CC[N+]1(CCCC(=O)OC[C@H](C)CC[C@H]2O[C@H]3C[C@H]4[C@@H]5CC=C6C[C@@H](OC(C)=O)CC[C@]6(C)[C@H]5CC[C@]4(C)[C@H]3[C@@H]2C)CCNCC1	13.7	36.4	34.6	
